Holding throughout (assay): In vitro antibacterial activity (MIC), two-fold agar-plate dilution method
Holding throughout (type): cell-based

Experiment [1] relates to Pseudomonas aeruginosa 19136. As to conditions: Pseudomonas aeruginosa 19136, metallo β-lactamase producing strain, HI-agar, 37° C. for 20 hours. The procedure: (§1) Now in order to show the utility of the object compound [I], the test data on MIC (minimal inhibitory concentration) of a representative compound of this invention are shown in the following.
(§2) In vitro antibacterial activity was determined by the two-fold agar-plate dilution method as described below.
(§3) One loopful of an overnight culture of each test strain in Trypticase-soy broth (10^6 viable cells per ml) was streaked on heart infusion agar (HI-agar) containing graded concentrations of representative test compound, and the minimal inhibitory concentration (MIC) was expressed in μg/ml after incubation at 37° C. for 20 hours.

Experiment [2] deals with Pseudomonas aeruginosa 22027. To be noted: Pseudomonas aeruginosa 22027, metallo β-lactamase producing strain, HI-agar, 37° C. for 20 hours. As for the experimental part: as §1, §2, §3
Experiment [3] deals with Pseudomonas aeruginosa FP 1380. To be noted: Pseudomonas aeruginosa FP 1380, AmpC β-lactamase overproduced strain, HI-agar, 37° C. for 20 hours. The procedure: as §1, §2, §3

This note sets out measurements from patent US20090012054A1, “Cephem Compounds and Use as Antimicrobial Agents” (priority 2006, published 2009).

Values after ≈ are worked out from the molar mass of the structure shown. Read-outs that look alike come from different tables or passages of the source.

On to `CC(C)(O/N=C(\C(=O)N[C@@H]1C(=O)N2C(C(=O)O)=C(C[n+]3cc(N(CCN)C(=N)N)c4n3CCCN4)CS[C@H]12)c1nsc(N)n1)C(=O)O.O=S(=O)([O-])O` [Compound (B), 7β-[(Z)-2-(5-amino-1,2,4-thiadiazol-3-yl)-2-(1-carboxy-1-methylethoxyimino)acetamido]-3-{3-[1-(2-aminoethyl)guanidino]-4,5,6,7-tetrahydro-1-(pyrazolo[1,5-a]pyrimidinio)}methyl-3-cephem-4-carboxylate sulfate], for which the results for the minimum inhibitory concentration (MIC) in experiment [1], in experiment [2] and in experiment [3] were 2 µg/mL, 8 µg/mL and 0.5 µg/mL, respectively.

For “7β-[(Z)-2-(5-amino-1,2,4-thiadiazol-3-yl)-2-(1-carboxy-1-methylethoxyimino)acetamido]-3-{3-[1-(3-aminopropyl)guanidino]-2,3-dihydro-5-(1H-imidazo[1,2-b]pyrazolio)}methyl-3-cephem-4-carboxylate sulfate [Compound (A)]”, the MIC (in general, the smallest concentration in the dilution series that meets the test's criterion for growth inhibition) in experiment [1] came out at 2 µg/mL; in experiment [2], 8 µg/mL; in experiment [3] it was 0.5 µg/mL.

For `C[C@H]1[C@H](NC(=O)/C(=N\OC(C)(C)C(=O)O)c2csc(N)n2)C(=O)N1S(=O)(=O)O` [Aztreonam, reference compound], the minimum inhibitory concentration (MIC) is 4 µg/mL (≈ 9.19 µM) in experiment [1] (read-out: MIC); 32 µg/mL (≈ 73.5 µM) in experiment [2] (read-out: MIC); 64 µg/mL (≈ 147 µM) in experiment [3] (FP1380, read-out: MIC).
